Measured values reported in patent US20220000892A1, “INFANT NUTRITIONAL COMPOSITION FOR USE IN THE ENHANCEMENT OF PANCREATIC MATURATION AND INSULIN BIOSYNTHESIS” (SOCIETE DES PRODUITS NESTLE S.A., priority 2018, published 2022).

Test system: IUGR rats
Assay: Insulin content of pancreas of IUGR rats at postnatal day 57 after HMO supplementation (ELISA)
Assay type: in vivo, Sprague-Dawley rats
Conditions: gavage 3 g/kg body weight d7 to d21, then diet with 4.5 wt% HMO d22 to d57, sacrifice at day 57 after 6-hr fasting, compared with control IUGR rats (about 50 μg insulin per g pancreatic tissue), FIG. 1, *P<0.05
Excerpt: Three groups of time-mated pregnant Sprague-Dawley female rats were bought from Charles River laboratories. One group was submitted to food restriction of 60% during the last 10 days of gestation and their offspring were cross-fostered to normally fed rats. A second group of pregnant females was normally fed and their offspring cross-fostered among the same group of dams. Immediately after birth ([…]), the born rat pups-subjects of the experiment-were assigned to one of the following groups: • IUGR group (negative control; n=20): IUGR rats being fed a normal diet after birth; • IUGR rats+HMO (test groups): During the experiment, they were reared by their mothers for 21 days and supplemented with HMOs (2-FL, LNnT or the Mix of 2-FL and LNnT). At weaning, they were fed a diet supplemented with the same HMOs, see details below. […] All rat pups were fed from birth (d=1) up to 57 days (d=57) based on the following protocol: • d1 to d6: all groups of rats were nursed by dam (mothers' milk only); • d7 to d21: all rats were nursed by dam (mothers' milk only). […] Rats were sacrificed at day 57 (postnatal day 57=p57) after a 6-hr fasting period and pancreas was dissected and its insulin content was extracted using a solution acid-ethanol and quantified using an Ultra Sensitive Insulin ELISA kit ([…]., Downer Grove, Ill., USA) with and inter assay CV of 4.0%.

| Compound | insulin content of the rat's pancreas (amount of insulin per gram of pancreatic tissue) |
| --- | --- |
| 2′-fucosyllactose [2FL] | significantly higher value of insulin |
| CC(=O)N[C@H]1[C@H](O[C@H]2[C@@H](O)[C@@H](CO)O[C@@H](O[C@H]3[C@H](O)[C@@H](O)C(O)O[C@@H]3CO)[C@@H]2O)O[C@H](CO)[C@@H](O[C@@H]2O[C@H](CO)[C@H](O)[C@H](O)[C@H]2O)[C@@H]1O (mixture of isomers) [LNnT, lacto-N-neotetraose] | about the same level of insulin |
